US6716605B2, “Indole derivatives having an antiviral activity” (Shionogi & Co., Ltd., priority 1998, dated 2004)

Biological target: HIV-1 integrase (Human immunodeficiency virus type 1 group M subtype B, UniProt P04585)
Assay: HIV-1 integrase inhibition assay (microtiter plate, substrate DNA/target DNA, OD 405 nm)
Format: biochemical
Experimental: The DNA solutions were annealed with each complement by slowly cooling after heating.
After coating each well of microtiter plates (obtained from NUNC) with 50 μl of the above solution at 4° C. overnight, each well was washed twice with PBS (composition: […], 0.27 mM KCl, 0.43 mM Na2HPO4, 0.14 mM KH2PO4) and blocked with 300 μl of 1% skim milk in PBS for 30 min. Additionally, each well was washed twice with PBS and added 50 μl of substrate DNA solution (2 pmol/μl). The microtiter plates were kept at room temperature for 30 min. Then, each well was washed twice with PBS and once with H2O.
The microtiter plates were incubated at 30° C. for 1 hour. […] Then, each well was washed twice with 0.05% Tween20 in PBS and once with PBS. […] The optical density (OD) at 405 nm of each well was measured and the percent inhibition was determined by the following expression.

SMILES	IC50 [µM]
O=C(C=C(O)c1nn[nH]n1)c1cn(Cc2ccccc2)c2ccc(Cl)cc12 [Example 81]	9.48
O=C(C=C(O)c1nn[nH]n1)c1cn(S(=O)(=O)c2cccs2)c2ccc(Cl)cc12 [Example 80]	7.57
O=C(O)C(O)=CC(=O)c1cn(S(=O)(=O)c2ccccc2)c2ccc(Cl)cc12 [Example 23(2), 4-(1-Benzenesulfonyl-5-chloroindol-3-yl)-2-hydroxy-4-oxo-2butenoic acid]	0.32
O=C(C=C(O)c1nc[nH]n1)c1c[nH]c2ccc(Cl)cc12 [Example 71]	5.16

Tested on: not given
Assay: not given

SMILES	melting point
COc1ccccc1Cc1[nH]c2ccc(Cl)cc2c1C(=O)/C=C(\O)c1nn[nH]n1	245 °C (dec.)
O=C(/C=C(\O)c1nc[nH]n1)c1cn(S(=O)(=O)c2cc(Cl)ccc2Cl)c2ccc(Cl)cc12	301 to 302 °C
O=C(/C=C(\O)c1nc[nH]n1)c1cn(S(=O)(=O)c2ccccc2)c2cc(Cl)ccc12	265 to 270 °C
O=C(O)c1cccc(C(O)=CC(=O)c2cn(S(=O)(=O)c3ccccc3)c3ccc(Cl)cc23)c1	245 to 255 °C (dec.)
O=C(C=C(O)c1nn[nH]n1)c1cn(Cc2ccccc2)c2ccc(Cl)cc12 [Example 81]	> 240 °C
O=C(/C=C(\O)c1nc[nH]n1)c1cn(Cc2ccc(F)cc2)c2ccc(Br)cc12	265 to 268 °C
O=C(/C=C(\O)c1nc[nH]n1)c1cn(S(=O)(=O)c2ccc(F)cc2)c2cc(Cl)ccc12	293 to 298 °C (dec.)
O=C(O)C(O)=CC(=O)c1cn(C(=O)c2ccc(F)cc2)c2ccc(Cl)cc12	213 to 218 °C
O=C(O)/C(O)=C/C(=O)c1cn(Cc2ccc(C(=O)O)cc2)c2ccc(Cl)cc12	245 °C (dec.)
COC(=O)/C(O)=C/C(=O)c1c(Cc2ccc(F)cc2)[nH]c2ccc(Cl)cc12	235 to 238 °C
O=C(C=C(O)c1nn[nH]n1)c1cn(S(=O)(=O)c2cccs2)c2ccc(Cl)cc12 [Example 80]	243 °C
O=C(/C=C(\O)c1ncc[nH]1)c1c[nH]c2ccc(Cl)cc12	272 to 276 °C
CCOC(=O)C(N)=CC(=O)c1c[nH]c2ccccc12	200 to 205 °C
O=C(O)c1cccc(C(O)=CC(=O)c2c[nH]c3ccc(Cl)cc23)c1	> 270 °C (dec.)
O=C(OC(c1ccccc1)c1ccccc1)C(O)=CC(=O)c1cn(C(=O)c2ccc(F)cc2)c2ccc(Cl)cc12	198 to 200 °C
O=C(/C=C(\O)c1nc[nH]n1)c1cn(Cc2ccccc2)c2ccc(Cl)cc12	264 to 265 °C
CCOCCNC(=CC(=O)c1cn(Cc2ccccc2)c2ccc(Cl)cc12)C(=O)O	184 to 186 °C (dec.)
O=C(/C=C(\O)c1nn[nH]n1)c1c([S+]([O-])c2cc(Cl)cc(Cl)c2)[nH]c2ccc(Cl)cc12 (stereo not shown)	200 to 204 °C (dec.)
CNC(=CC(=O)c1cn(Cc2ccccc2)c2ccc(Cl)cc12)C(=O)O	205 to 210 °C (dec.)
O=C(/C=C(\O)c1nn[nH]n1)c1cn(Cc2ccccc2)c2c(Cl)cccc12	252 °C (dec.)
CCOCCNC(=CC(=O)c1cn(Cc2ccccc2)c2ccc(Cl)cc12)C(=O)OCC	73 to 74 °C
COc1ccccc1Cn1cc(C(=O)/C=C(\O)c2nn[nH]n2)c2cc(Cl)ccc21	256 °C (dec.)
CCOC(=O)C(=CC(=O)c1cn(Cc2ccccc2)c2ccc(Cl)cc12)NC	131 to 132 °C
O=C(/C=C(\O)c1nn[nH]n1)c1c(CCCc2ccc(F)cc2)[nH]c2ccc(Cl)cc12	181 to 182 °C (dec.)
O=C(/C=C(\O)c1nc[nH]n1)c1cn(S(=O)(=O)c2ccc(F)cc2)c2ccc(Br)cc12	266 to 270 °C
O=C(/C=C(\O)c1nccs1)c1c[nH]c2ccc(Cl)cc12	226 to 227 °C
O=C(/C=C(\O)c1nc[nH]n1)c1cn(S(=O)(=O)c2ccccc2)c2ccc(Br)cc12	290 to 295 °C (dec.)
O=C(C=C(O)c1nc[nH]n1)c1c[nH]c2ccc(Cl)cc12 [Example 71]	277 to 279 °C
O=C(/C=C(\O)c1nccs1)c1cn(S(=O)(=O)c2ccccc2)c2ccc(Cl)cc12	191 to 194 °C
O=C(/C=C(\O)c1nc[nH]n1)c1cn(Cc2ccc(F)cc2)c2cc(Cl)ccc12	260 to 263 °C
